Where “and” joins values, the source holds several entries; their conditions need not be identical. Equal entries are not always repeated. Structures can show the parent of a compound that is named as a salt.
Legend:
Assay in all cases: viability inhibition at highest dose (% inhibition); higher = more growth inhibition
[1] = test system: BT-474; details: 72 h
Method: (§1)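 Percent inhibition of viability (CellTiter-Glo, 72 h) at the highest tested concentration (D5), normalised to DMSO (0%) and 100 µM benzethonium chloride (100%). Resistant lines and the 'in 1µM tamoxifen' arms were tested in 1 µM 4-OH-tamoxifen.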

[2] = test system: T-47D Tam1; details: 4-OH-tamoxifen in medium 1 µM; 72 h
Method: as §1

[3] = test system: BT-474 Tam1; details: 4-OH-tamoxifen in medium 1 µM; 72 h
Method: as §1

[4] = test system: ZR-75-1 Tam2; details: 4-OH-tamoxifen in medium 1 µM; 72 h
Method: as §1

[5] = test system: ZR-75-1 Tam1; details: 4-OH-tamoxifen in medium 1 µM; 72 h
Method: as §1

[6] = test system: MCF-7 Tam1; details: 4-OH-tamoxifen in medium 1 µM; 72 h
Method: as §1

[7] = test system: T-47D; details: 72 h
Method: as §1

[8] = test system: BT-474 Tam2; details: 4-OH-tamoxifen in medium 1 µM; 72 h
Method: as §1

[9] = test system: ZR-75-1; details: 72 h
Method: as §1

[10] = test system: MCF-7; details: 72 h
Method: as §1

[11] = test system: T-47D Tam2; details: 4-OH-tamoxifen in medium 1 µM; 72 h
Method: as §1

Compound	viability inhibition at highest dose ([1]; 4-OH-tamoxifen in medium 0 µM)	viability inhibition at highest dose ([1]; 4-OH-tamoxifen in medium 1 µM)	viability inhibition at highest dose [2]	viability inhibition at highest dose [3]	viability inhibition at highest dose [4]	viability inhibition at highest dose [5]	viability inhibition at highest dose [6]	viability inhibition at highest dose ([7]; 4-OH-tamoxifen in medium 0 µM)	viability inhibition at highest dose ([7]; 4-OH-tamoxifen in medium 1 µM)	viability inhibition at highest dose [8]	viability inhibition at highest dose ([9]; 4-OH-tamoxifen in medium 0 µM)	viability inhibition at highest dose ([9]; 4-OH-tamoxifen in medium 1 µM)	viability inhibition at highest dose ([10]; 4-OH-tamoxifen in medium 0 µM)	viability inhibition at highest dose ([10]; 4-OH-tamoxifen in medium 1 µM)	viability inhibition at highest dose [11]
O=c1[nH]c(=O)n([C@H]2C[C@H](O)[C@@H](CO)O2)cc1F [Floxuridine] (drug 10000 nM)	30.5	27.9	59	12.3	18.5	8.75	5.39	22.3	7.89	3.04	22.7	12.6	21	1.8	21.3
O=C(c1ccc(OCCN2CCCCC2)cc1)c1c(-c2ccc(O)cc2)sc2cc(O)ccc12 [Raloxifene  HCl] (drug 10000 nM)	22.8	54	12.6	44.3	2.72	9.11	21.5	11.3	9.48	34.8	11.9	13.3	33.2	33.8	25.9
O=P1(N(CCCl)CCCl)NCCCO1 (stereo not given) [Clafen (Cyclophosphamide, Endoxan)] (drug 40000 nM)	-4.59	-11.3	-3.65	-0.665	-3.35	7.03	1.76	-14	-13.7	2.47	-3.78	-1.89	-6.33	11	11.9
CN1CCN(c2nc(C3=C(c4c[nH]c5ccccc45)C(=O)NC3=O)c3ccccc3n2)CC1 [Sotrastaurin] (drug 10000 nM)	9.38	48.9	8.91	65.2	7.03	9.64	8.16	-8.99	1.91	25.2	6.75	14.4	21.3	10	6.92
CC[C@]1(O)C[C@H]2CN(CCc3c([nH]c4ccccc34)[C@@](C(=O)OC)(c3cc4c(cc3OC)N(C=O)[C@H]3[C@@](O)(C(=O)OC)[C@H](OC(C)=O)[C@]5(CC)C=CCN6CC[C@]43[C@@H]65)C2)C1 [Vincristine] (drug 10000 nM)	47.4	83.8	68.8	93.7	35.9	29.2	12.1	16.5	31.2	84.9	28.7	28.5	56.6	54.4	59
CC[C@@H]1C(=O)OC[C@@H]1Cc1cncn1C [Pilocarpine] (drug 40000 nM)	-0.744	-6.73	-0.157	4.36	-0.127	8.48	-6.84	-7.15	-0.389	6.51	-3.18	-6.19	-3.51	9.03	9.72
Cc1c(C(=O)Nc2ccc(N3C[C@@H](C)O[C@@H](C)C3)nc2)cccc1-c1ccc(OC(F)(F)F)cc1 [Erismodegib (NVP-LDE225)] (drug 10000 nM)	18	41.1	4.09	15.9	7.11	13.1	15.1	19.8	8.8	19	-0.79	17.1	23.2	14.6	19.2
CCCCC/C=C/C=C1/C(=O)C=C[C@@H]1C/C=C\CCCC(=O)O [15D-PGJ2] (drug 800 nM)	-7.22	-14.5	0.0444	-6.35	-2.77	-1.15	-5.28	-18.6	-6.02	-6.87	-12.7	5.41	-3.98	-2.34	19.6
Cc1ccc([N+](=O)[O-])cc1S(=O)(=O)N(C)/N=C/c1cnc2ccc(Br)cn12 [PIK-75 (HCl)] (drug 10000 nM)	97.9	97.7	91.4	99.3	83.9	88.8	81.4	60.4	56.9	98.6	80	71	64.9	85.5	83.6
O=C(Nc1cccnc1)N1CCC(Cc2cccc(Oc3ccc(C(F)(F)F)cn3)c2)CC1 [PF-3845] (drug 10000 nM)	72	81.8	52.3	95.4	49.9	39.4	29.1	40.6	25.3	95.7	30.5	51.3	53.1	58.6	36.1
CCc1c(C(=O)C(N)=O)c2c(OCC(=O)O)cccc2n1Cc1ccccc1 [Varespladib] (drug 10000 nM)	0.192	-17.3	-7.33	-12.8	-6.3	-2.44	-3.81	-1.77	-10.9	-5.77	-0.701	-2.07	13.3	-9.89	-7.24
Cc1ccc(C(=O)N(CCCN)[C@@H](c2oc3cc(Cl)ccc3c(=O)c2Cc2ccccc2)C(C)C)cc1 (drug 100 nM)	-10.2	-22.8	-2.81	-6.24	-13.3	-7.2	-9.67	-16.7	-5.16	-0.695	-10.8	-9.18	5.45	19.8	7.13
CCCS(=O)(=O)Nc1ccc(F)c(C(=O)c2c[nH]c3ncc(-c4ccc(Cl)cc4)cc23)c1F [Vemurafenib (PLX4032)] (drug 10000 nM)	-0.692	16.2	-8.15	-8.2	0.975	8.49	3.76	-10.9	17.5	-15	-0.616	10.2	7.54	-8.65	21.7
Cc1nc(Nc2ncc(C(=O)Nc3c(C)cccc3Cl)s2)cc(N2CCN(CCO)CC2)n1 [Dasatinib] (drug 1000 nM)		1.98 and 3.29	35.9 and 30.8	37.1 and 33.4	-36.2 and -32.2	-34.5 and -23.8			30.8 and 16.6		-61.6 and -72.5	-39.5 and -41.9		12.7 and 8.15	35.6 and 31.4
